Results as given in patent US10940188B2, “Compounds and methods for treatment and prevention of Flavivirus infection” (priority 2016, dated 2021).
Where a name gives a salt, the structure may show the parent alone. Read-outs that look alike come from different tables or passages of the source.

Key:
[1] = system: HEK293 cells; experiment: Toxicity IC50 (cell-killing activity) of the NS1 TR-FRET screen; type: cell-based, human; conditions: cell-killing activity
[2] = system: ZIKV-induced cell death in SNB-19 cells; experiment: ATP cell viability assay for ZIKV-induced cell death, SNB-19 cells; type: cell-based, human; conditions: ZIKV-infected SNB-19 cells; for IC50: read-out: Cell viability (IC50, uM) SNB-19
Protocol: (§1) The reagent was reconstituted and prepared as described by the manufacturer. In order to measure the cell death caused by ZIKV infection, cells were cultured for 16 hours at 37° C. with 5% CO2 in assay plates, followed by the addition of ZIKV solution and incubation at 37° C. with 5% CO2 for 72 hours. ATPlite, the ATP monitoring reagent, was then added to the assay plates and they were incubated for 15 minutes. The resulting luminescence was measured using the ViewLux plate reader (Perkin Elmer). Data were normalized using the wells without cells as a control for 100% cell killing, and cell-containing wells without ZIKV infection were used as full cell viability (0% cell killing). […]
as §1, with “The ATPlite luminescence assay system assay kit (PerkinElmer) was used to determine cell viability. The reagent” for “The reagent”, “by the manufacture. In order” for “by the manufacturer. In order”, “followed by addition of” for “followed by the addition of”, “plates and incubated for” for “plates and they were incubated for”, “Elmer). Data was normalized using” for “Elmer). Data were normalized using”

[3] = system: ZIKV-induced cell death in human astrocytes; experiment: ATP cell viability assay for ZIKV-induced cell death, human astrocytes; type: cell-based; conditions: ZIKV-infected human astrocytes; for IC50: read-out: Cell viability (IC50, uM) Astrocyte
[4] = system: ZIKV-induced caspase 3/7 activity in hNPCs; experiment: Caspase 3/7 activity assay, ZIKV-infected hNPCs; type: cell-based; conditions: ZIKV-infected hNPCs; for IC50: read-out: Caspase 3 (IC50, uM) NPCs; for Emax: read-out: Caspase 3 (efficacy, %) NPCs
Protocol: (§2) Caspase-Glo 3/7 assay kit (catalog number G8092; Promega, Madison, Wis.) was used to detect caspase 3/7 activity. Reagents were reconstituted as described in the protocol from the manufacturer. Polystyrene plates (384-well and 1536-well; regular tissue culture treated and PDL coated) were purchased from Greiner Bio-One (Monroe, N.C.). Cells were seeded in 384- and 1536-well assay plates and cultured at 37° C. with 5% CO2 for 16 hours. ZIKV solution was added to cells, followed by incubation at 37° C. with 5% CO2 for 6 hours. Caspase-Glo 3/7 was added to each well, unless otherwise specified, and incubated at room temperature for 30 minutes. The luminescence intensity of the assay plates was measured using a ViewLux plate reader (PerkinElmer). Data were normalized by using the cell-containing wells without ZIKV as a negative control (0% induction of caspase 3/7 activity) and wells containing ZIKV infected cells that induced caspase 3/7 activity were used as a positive control (100% induction of caspase 3/7 activity).
Human NPCs were seeded onto PDL coated 1536-well assay plates at 250 cells per 3 μl/well and incubated at 37° C. in 5% CO2 for 16 hours. Test compounds dissolved in DMSO were transferred to assay plates at a volume of 23 nl/well by an automated pintool workstation (Wako Automation, San Diego, Calif.). Compounds were incubated with cells for 30 minutes at 37° C. in 5% CO2, immediately followed by the addition of 2 μl/well of ZIKV. Incubation time of compound-treated cells with ZIKV varied based on assay format. Experiments measuring virus-induced caspase 3/7 activity required a 6 hour incubation of ZIKV in the presence compounds at 37° C. in 5% CO2. Following this incubation, 3.5 μl/well of caspase 3/7 reagent mixture was added to assay plates. The plates were incubated for 30 minutes at room temperature, and the resultant luminescence signal was measured using a ViewLux plate reader (Perkin Elmer). Experiments measuring virus-induced cell death required a 72-hour incubation of ZIKV in the presence of compounds at 37° C. in 5% CO2. Following this incubation, 3.5 μl/well of ATP content detection reagent was added to assay plates, incubated for 30 minutes at the room temperature, and the resultant luminescence signal was measured in a ViewLux plate reader.
(§3) Caspase-Glo 3/7 assay kit (Promega) was used to detect caspase 3/7 activity. Reagents were reconstituted as described in the protocol from the manufacturer. Cells were seeded in 384- and 1536-well assay plates and cultured at 37° C. with 5% CO2 for 16 hours. ZIKV solution was added to cells, followed by incubation at 37° C. with 5% CO2 for 6 hours. Caspase-Glo 3/7 was added to each well at a 1:1 ratio, unless otherwise specified, and incubated at room temperature for 30 minutes. The luminescence intensity of the assay plates was measured using a ViewLux plate reader (PerkinElmer). Data was normalized by using the cell-containing wells without ZIKV as a negative (0% induction of caspase 3/7 activity) control and wells containing ZIKV infected cells that induced caspase 3/7 activity were used as a positive control (100% induction of caspase 3/7 activity).
Human NPCs were seeded onto PDL coated 1536-well assay plates at 250 cells per 3 μl/well and incubated at 37° C. in 5% CO2 for 16 hours. Test compounds dissolved in DMSO were transferred to assay plates at a volume of 23 nl/well by an automated pintool workstation (Wako Automation, San Diego, Calif.). Compounds were incubated with cells for 30 minutes at 37° C. in 5% CO2, immediately followed by the addition of 2 μl/well of ZIKV. Incubation time of compound-treated cells with ZIKV varied based on assay format. Experiments measuring virus induced caspase 3/7 activity required a 6 hour incubation of ZIKV in the presence compounds at 37° C. in 5% CO2. […]

[5] = system: ZIKV-induced caspase 3/7 activity in human astrocytes; experiment: Caspase 3/7 activity assay, ZIKV-infected human astrocytes; type: cell-based; conditions: ZIKV-infected human astrocytes; for IC50: read-out: Caspase 3 (IC50, uM) Astrocyte; for Emax: read-out: Caspase 3 (efficacy, %) Astrocyte
Protocol: as §2, with “activity). […]” for “activity).”
as §3, with “activity). […]” for “activity).”

[6] = system: ZIKV-induced caspase 3/7 activity in SNB-19 cells; experiment: Caspase 3/7 activity assay, ZIKV-infected SNB-19 cells; type: cell-based; conditions: ZIKV-infected SNB-19 cells; for IC50: read-out: Caspase 3 (IC50, uM) SNB-19; for Emax: read-out: Caspase 3 (efficacy, %) SNB-19
Protocol: as §2, with “activity). […]” for “activity).”
as §3, with “activity). […]” for “activity).”

[7] = system: ZIKV MR766 NS1; experiment: microbe, parasite or virus in culture; type: cell-based, Zika virus; conditions: Zika virus, HEK293, 48 h, read-out: NS1-IC50
Protocol: A one-step NS1 TR-FRET (Time-resolved fluorescence resonance energy transfer) assay for a screen of anti-ZIKV compounds was carried out. Human embryonic kidney cell line HEK293 cells were seeded into 384-well plates and infected with ZIKV MR766 at a MOI of 0.5 for 2 days. The FRET assay was performed with two clones of anti-NS1 antibody (ab) differentially labelled with donor and acceptor fluorophores.

Row | SMILES | Cell viability (efficacy, %) SNB-19 [2] [%] | Cell viability (efficacy, %) Astrocyte [3] [%] | IC50 ([4]; Homo sapiens) [µM] | Emax ([4]; Homo sapiens) [%] | IC50 ([5]; Astrocyte) [µM] | Emax ([5]; Astrocyte) [%] | IC50 ([6]; Homo sapiens) [µM] | Emax ([6]; Homo sapiens) [%] | other results
1 | CC[C@@H]1C(=O)N(C)c2cnc(Nc3ccc(C(=O)NC4CCN(C)CC4)cc3OC)nc2N1C1CCCC1 [BI-2536] |  |  |  |  |  |  |  |  | Tox IC50 [1]: No
2 | O=c1cc(-c2ccccc2)oc2cc(O)cc(O)c12 [5,7-Dihydroxyflavone] | 0.0 | 0.0 | 5.48 | 51 | 15.5 | 55.1 | 8.69 | 42.7 | 
3 | CN(C)c1ccc(N=NS(=O)(=O)[O-])cc1.[Na+] [Fenaminosulf] | 36.7 | 0.0 |  |  |  |  |  |  | IC50 [2]: 15.8 µM; Caspase 3 (efficacy, %) NPCs [4]: 0.0%; Caspase 3 (efficacy, %) Astrocyte [5]: 58.5%; IC50 [5]: 35.5 µM; Caspase 3 (efficacy, %) SNB-19 [6]: 0.0%
4 | C=CC[C@@H]1/C=C(\C)C[C@H](C)C[C@H](OC)[C@H]2O[C@@](O)(C(=O)C(=O)N3CCCC[C@H]3C(=O)O[C@H](/C(C)=C/[C@@H]3CC[C@@H](O)[C@H](OC)C3)[C@H](C)[C@@H](O)CC1=O)[C@H](C)C[C@@H]2OC [FK-506] |  |  |  |  |  |  |  |  | IC50 [7]: 0.104 µM
5 | COc1cccc2c1C(=O)c1c(O)c3c(c(O)c1C2=O)C[C@@](O)(C(=O)CO)C[C@@H]3O[C@H]1C[C@H](N)[C@@H](O)[C@H](C)O1 [Epirubicin hydrochloride] |  |  |  |  |  |  |  |  | IC50 [7]: 0.492 µM
6 | COc1ccc([C@@H]2CC(=O)c3c(O)cc(O)cc3O2)cc1O [Hesperetin] | 0.0 | 0.0 | 10.9 | 79.6 | 16.4 | 72.7 | 17.3 | 86 | 
7 | O=C(/C=C/c1ccc(O)cc1)c1ccc(O)cc1O [Isoliquiritigenin] | 36.3 | 0.0 | 1.84 | 89 | 3.08 | 95.1 | 2.18 | 96.9 | IC50 ([2]; Homo sapiens): 3.08 µM
8 | Clc1ccccc1-c1nc(-c2ccncc2)no1 [Pifexole] | 0.0 | 0.0 | 4.61 | 92.2 | 6.9 | 86.3 | 8.2 | 83.6 | 
9 | Nc1ccc(-c2ccc3ccccc3n2)cc1 [BF-170 hydrochloride] | 0.0 | 65.8 |  |  |  |  |  |  | IC50 [3]: 6.15 µM; Caspase 3 (efficacy, %) NPCs [4]: 92.7%; IC50 [4]: 4.11 µM; Caspase 3 (efficacy, %) Astrocyte [5]: 118%; IC50 [5]: 4.61 µM; Caspase 3 (efficacy, %) SNB-19 [6]: 104%; IC50 [6]: 6.15 µM
10 | OCc1ccc(-c2ccc(-c3ccc(CO)s3)o2)s1 [RITA] | 0.0 | 81.7 |  |  |  |  |  |  | IC50 [3]: 5.81 µM; Caspase 3 (efficacy, %) NPCs [4]: 50.9%; IC50 [4]: 14.6 µM; Caspase 3 (efficacy, %) Astrocyte [5]: 41.2%; IC50 [5]: 27.5 µM; Caspase 3 (efficacy, %) SNB-19 [6]: 101%; IC50 [6]: 0.22 µM
11 | COc1cccc2c1C(=O)c1c(O)c3c(c(O)c1C2=O)C[C@@](O)(C(=O)CO)C[C@@H]3O[C@H]1C[C@H](N)[C@H](O[C@@H]2CCCCO2)[C@H](C)O1 [Pirarubicin] | 0.0 | 0.0 |  | 51.5 | 13.8 | 59.8 | 20.6 | 63.9 | 
12 | O=C(Nc1ncc([N+](=O)[O-])s1)c1cccs1 [Tenonitrozole] | 0.0 | 0.0 | 1.3 | 81.5 | 2.06 | 88.8 | 1.95 | 81.7 | 
13 | CCC[S+]([O-])c1ccc2[nH]c(NC(=O)OC)nc2c1 (stereo not drawn) [Albendazole oxide] | 0.0 | 0.0 | 12.3 | 88.1 | 15.5 | 78.8 | 21.8 | 86 | 
